Legend:
Test in all cases: relative viability (nuclei count vs DMSO), 5 days (fraction); higher = more cells survive
[1] = compound: CC1=C(C(=O)N2C=CSC2=N1)CCN3CCC(=C(C4=CC=CC=C4)C5=CC=C(C=C5)F)CC3 + CS(=O)(=O)N1CCN(Cc2cc3nc(-c4cccc5[nH]ncc45)nc(N4CCOCC4)c3s2)CC1 [Pictilisib] (partner 1 µM)
How it was run: (§1)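 Values are medians from duplicate plates. Each reflects relative viability, defined as the nuclei count of treated wells over that of vehicle wells. Lung cancer cell lines in 1536-well plates were pin-tool dosed one day after seeding with one drug alone or with a fixed anchor-drug dose plus five library-drug doses (not always all listed) in √10 steps, then fixed, stained and imaged at 4× after 5 days.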

[2] = compound: CC1=C(C(=O)N2C=CSC2=N1)CCN3CCC(=C(C4=CC=CC=C4)C5=CC=C(C=C5)F)CC3 + Nc1ncn([C@H]2C[C@H](O)[C@@H](CO)O2)c(=O)n1 [Decitabine] (partner 2 µM)
How it was run: as §1

[3] = compound: CC1=C(C(=O)N2C=CSC2=N1)CCN3CCC(=C(C4=CC=CC=C4)C5=CC=C(C=C5)F)CC3 + C[C@@H](Oc1cc(-c2cnn(C3CCNCC3)c2)cnc1N)c1c(Cl)ccc(F)c1Cl [Crizotinib] (partner 1 µM)
How it was run: as §1

[4] = compound: CC1=C(C(=O)N2C=CSC2=N1)CCN3CCC(=C(C4=CC=CC=C4)C5=CC=C(C=C5)F)CC3 + Cc1nc(NC(=O)N2CCC[C@H]2C(N)=O)sc1-c1ccnc(C(C)(C)C(F)(F)F)c1 [Alpelisib] (partner 2 µM)
How it was run: as §1

[5] = compound: CC1=C(C(=O)N2C=CSC2=N1)CCN3CCC(=C(C4=CC=CC=C4)C5=CC=C(C=C5)F)CC3 + N=C(N)NC(=N)NCCc1ccccc1 [Phenformin] (partner 250 µM)
How it was run: as §1

[6] = compound: CC1=C(C(=O)N2C=CSC2=N1)CCN3CCC(=C(C4=CC=CC=C4)C5=CC=C(C=C5)F)CC3 + CS(=O)(=O)CCNCc1ccc(-c2ccc3ncnc(Nc4ccc(OCc5cccc(F)c5)c(Cl)c4)c3c2)o1 [Lapatinib] (partner 2 µM)
How it was run: as §1

[7] = compound: CC1=C(C(=O)N2C=CSC2=N1)CCN3CCC(=C(C4=CC=CC=C4)C5=CC=C(C=C5)F)CC3 + O=C(c1cc(Cc2n[nH]c(=O)c3ccccc23)ccc1F)N1CCN(C(=O)C2CC2)CC1 [Olaparib] (partner 8 µM)
How it was run: as §1

[8] = compound: CC1=C(C(=O)N2C=CSC2=N1)CCN3CCC(=C(C4=CC=CC=C4)C5=CC=C(C=C5)F)CC3 + CC1(C)CCC(c2ccc(Cl)cc2)=C(CN2CCN(c3ccc(C(=O)NS(=O)(=O)c4ccc(N[C@H](CCN5CCOCC5)CSc5ccccc5)c(S(=O)(=O)C(F)(F)F)c4)cc3)CC2)C1 [Navitoclax] (partner 0.5 µM)
How it was run: as §1

[9] = compound: CC1=C(C(=O)N2C=CSC2=N1)CCN3CCC(=C(C4=CC=CC=C4)C5=CC=C(C=C5)F)CC3 + COc1cc2c(Oc3ccc(NC(=O)C4(C(=O)Nc5ccc(F)cc5)CC4)cc3F)ccnc2cc1OCCCN1CCOCC1 [Foretinib] (partner 0.25 µM)
How it was run: as §1

[10] = compound: CC1=C(C(=O)N2C=CSC2=N1)CCN3CCC(=C(C4=CC=CC=C4)C5=CC=C(C=C5)F)CC3 + C[C@]1(O)C[C@@H](c2nc(-c3ccc4ccc(-c5ccccc5)nc4c3)c3c(N)nccn32)C1 [Linsitinib] (partner 1 µM)
How it was run: as §1

[11] = compound: CC1=C(C(=O)N2C=CSC2=N1)CCN3CCC(=C(C4=CC=CC=C4)C5=CC=C(C=C5)F)CC3
How it was run: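 Viability here means nuclei in treated wells divided by nuclei in vehicle wells, reported as the median across plates. Only plates with control CV below 25% and at least one doubling passed. Lung cancer cell lines in 1536-well plates were exposed to five √10-spaced library-drug doses for 5 days and counted from 4× Hoechst images in MetaXpress.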

[12] = compound: CC1=C(C(=O)N2C=CSC2=N1)CCN3CCC(=C(C4=CC=CC=C4)C5=CC=C(C=C5)F)CC3 + CCNC(=O)c1noc(-c2cc(C(C)C)c(O)cc2O)c1-c1ccc(CN2CCOCC2)cc1 [Luminespib] (partner 0.01 µM)
How it was run: as §1

[13] = compound: CC1=C(C(=O)N2C=CSC2=N1)CCN3CCC(=C(C4=CC=CC=C4)C5=CC=C(C=C5)F)CC3 + Cc1nc(Nc2ncc(C(=O)Nc3c(C)cccc3Cl)s2)cc(N2CCN(CCO)CC2)n1 [Dasatinib] (partner 0.075 µM)
How it was run: as §1

[14] = compound: CC1=C(C(=O)N2C=CSC2=N1)CCN3CCC(=C(C4=CC=CC=C4)C5=CC=C(C=C5)F)CC3 + COc1cccc2cc(-c3nc([C@H]4CC[C@H](C(=O)O)CC4)n4ncnc(N)c34)[nH]c12 [OSI-027] (partner 0.5 µM)
How it was run: as §1

[15] = compound: CC1=C(C(=O)N2C=CSC2=N1)CCN3CCC(=C(C4=CC=CC=C4)C5=CC=C(C=C5)F)CC3 + Cc1cc(Nc2cc(N3CCN(C)CC3)nc(Sc3ccc(NC(=O)C4CC4)cc3)n2)n[nH]1 [Tozasertib] (partner 0.1 µM)
How it was run: as §1

A549 was tested, and the relative viability ([1]; first compound 0.08 µM) was 0.643, the relative viability ([1]; first compound 0.253 µM) was 0.434 and the relative viability ([1]; first compound 0.8 µM) was 0.467. The relative viability ([1]; first compound 2.53 µM) was 0.567, the relative viability ([1]; first compound 8 µM) was 0.422 and the relative viability ([2]; first compound 0.08 µM) was 0.206. It also gave a relative viability ([2]; first compound 0.253 µM) of 0.249, a relative viability ([2]; first compound 0.8 µM) of 0.266 and a relative viability ([2]; first compound 2.53 µM) of 0.282. It also gave a relative viability ([2]; first compound 8 µM) of 0.194, a relative viability ([3]; first compound 0.08 µM) of 0.855 and a relative viability ([3]; first compound 0.253 µM) of 0.777. For the same cell line, the relative viability ([3]; first compound 0.8 µM) was 0.665, the relative viability ([3]; first compound 2.53 µM) was 0.64 and the relative viability ([3]; first compound 8 µM) was 0.579. It also gave a relative viability ([4]; first compound 0.08 µM) of 0.915, a relative viability ([4]; first compound 0.253 µM) of 0.923 and a relative viability ([4]; first compound 0.8 µM) of 0.747. The relative viability ([4]; first compound 2.53 µM) was 0.871, the relative viability ([4]; first compound 8 µM) was 0.275 and the relative viability ([5]; first compound 0.08 µM) was 0.101. For the same cell line, the relative viability ([5]; first compound 0.253 µM) was 0.203, the relative viability ([5]; first compound 0.8 µM) was 0.206 and the relative viability ([5]; first compound 2.53 µM) was 0.112. It also gave a relative viability ([5]; first compound 8 µM) of 0.151, a relative viability ([6]; first compound 0.08 µM) of 1.06 and a relative viability ([6]; first compound 0.253 µM) of 0.884. The relative viability ([6]; first compound 0.8 µM) was 0.922, the relative viability ([6]; first compound 2.53 µM) was 1.23 and the relative viability ([6]; first compound 8 µM) was 0.797. For the same cell line, the relative viability ([7]; first compound 0.253 µM) was 0.212, the relative viability ([7]; first compound 0.8 µM) was 0.385 and the relative viability ([7]; first compound 2.53 µM) was 0.36. It also gave a relative viability ([7]; first compound 8 µM) of 0.151, a relative viability ([8]; first compound 0.08 µM) of 1.32 and a relative viability ([8]; first compound 0.253 µM) of 1.19. For the same cell line, the relative viability ([8]; first compound 0.8 µM) was 1.3, the relative viability ([8]; first compound 2.53 µM) was 1.37 and the relative viability ([8]; first compound 8 µM) was 0.673. It also gave a relative viability ([9]; first compound 0.08 µM) of 0.954, a relative viability ([9]; first compound 0.253 µM) of 0.982 and a relative viability ([9]; first compound 0.8 µM) of 1.03. It also gave a relative viability ([9]; first compound 2.53 µM) of 0.97, a relative viability ([9]; first compound 8 µM) of 0.763 and a relative viability ([10]; first compound 0.253 µM) of 0.61. It also gave a relative viability ([10]; first compound 0.8 µM) of 0.658, a relative viability ([10]; first compound 2.53 µM) of 0.432 and a relative viability ([10]; first compound 8 µM) of 0.309. For the same cell line, the relative viability ([11]; 0.08 µM) was 0.841, the relative viability ([11]; 0.253 µM) was 1.05 and the relative viability ([11]; 0.8 µM) was 1.01. For the same cell line, the relative viability ([11]; 2.53 µM) was 1.06 and the relative viability ([11]; 8 µM) was 0.433.

Cell Line NCI-H1623 has a relative viability ([12]; first compound 0.08 µM) of 0.563, a relative viability ([12]; first compound 0.253 µM) of 0.631 and a relative viability ([12]; first compound 0.8 µM) of 0.521. It also gave a relative viability ([12]; first compound 2.53 µM) of 0.472, a relative viability ([12]; first compound 8 µM) of 0.35 and a relative viability ([13]; first compound 0.08 µM) of 0.473. The relative viability ([13]; first compound 0.253 µM) was 0.57, the relative viability ([13]; first compound 0.8 µM) was 0.5 and the relative viability ([13]; first compound 2.53 µM) was 0.536. The relative viability ([13]; first compound 8 µM) was 0.549, the relative viability ([5]; first compound 0.08 µM) was 0.706 and the relative viability ([5]; first compound 0.253 µM) was 0.618. For the same cell line, the relative viability ([5]; first compound 0.8 µM) was 0.607, the relative viability ([5]; first compound 2.53 µM) was 0.564 and the relative viability ([5]; first compound 8 µM) was 0.594. The relative viability ([14]; first compound 0.08 µM) was 0.416, the relative viability ([14]; first compound 0.253 µM) was 0.411 and the relative viability ([14]; first compound 0.8 µM) was 0.431. For the same cell line, the relative viability ([14]; first compound 2.53 µM) was 0.436, the relative viability ([14]; first compound 8 µM) was 0.433 and the relative viability ([9]; first compound 0.08 µM) was 0.632. For the same cell line, the relative viability ([9]; first compound 0.253 µM) was 0.968, the relative viability ([9]; first compound 0.8 µM) was 0.886 and the relative viability ([9]; first compound 2.53 µM) was 0.819. The relative viability ([9]; first compound 8 µM) was 0.826, the relative viability ([15]; first compound 0.08 µM) was 0.466 and the relative viability ([15]; first compound 0.253 µM) was 0.434. It also gave a relative viability ([15]; first compound 0.8 µM) of 0.446, a relative viability ([15]; first compound 2.53 µM) of 0.475 and a relative viability ([15]; first compound 8 µM) of 0.419. It also gave a relative viability ([11]; 0.08 µM) of 0.887, a relative viability ([11]; 0.253 µM) of 1.03 and a relative viability ([11]; 0.8 µM) of 1.02. For the same cell line, the relative viability ([11]; 2.53 µM) was 0.96 and the relative viability ([11]; 8 µM) was 0.87.

Reference: the supplement of paper PMC10307832
